From patent US20260284066A1, “TYK2 INHIBITORS AND COMPOSITIONS AND METHODS THEREOF” (LYNK PHARMACEUTICALS CO. LTD., priority 2023, published 2026)
Values after ≈ are worked out from the molar mass of the structure shown. Where two headings read alike, the source gives them in different places.

Experiments:
TYK2-JH2 domain = molecular target: T1, TYK2-JH2 domain (Homo sapiens, UniProt P29597); assay: Binding activity test for TYK2 JH2 domain (Tb-antibody/tracer FRET); conditions: for JAK1/TYK2 selectivity: ratio of JAK1 JH2 to TYK2 JH2 binding IC50; for IC50: read-out: TYK2 JH2 Binding IC50
T1 construct: JAK1-JH2 domain or TYK2-JH2 domain enzyme

JAK1-JH2 domain = molecular target: T2, JAK1-JH2 domain (Homo sapiens, UniProt P23458); assay: Binding activity test for JAK1 JH2 domain (Tb-antibody/tracer FRET); conditions: read-out: JAK1 JH2 Binding IC50
T2 construct: JAK1-JH2 domain or TYK2-JH2 domain enzyme
Method: Binding Activity test for JH2 domain of JAK and TYK2
75 nL DMSO for high control and low control.
For low control, add 5 μL/well assay buffer. […] After enzyme system prepared, add 5 μL of Tb-antibody solution into each wells of assay plate. […] After Tb-antibody added, also add 5 μL of tracer into the assay plate. […] Incubate for 60 mins at 25° C. firstly and then continue to incubate the plate at 4° C. overnight. Read by envision in FRET mode. The Luminescence value was recorded by a multi-label reader Envision (PerkinElmer). Inhibition Rate was calculated relative to vehicle (DMSO) treated control wells using following formula:
wherein • RLU_compound=the relative light unit of cells treated with test compounds • RLU_low control=the relative light unit of medium with DMSO only • RLU_high control=the relative light unit of cells treated with DMSO only

[1] = Microsomal metabolic stability assay; assay type: in vitro ADME, human; conditions: for half-life at 1 µM / microsomal CLint at 1 µM: human, liver microsomes, pH 7.4, human liver microsomes 0.5 mg/mL; for half-life at 1 µM: read-out: Human LM T½; for microsomal CLint at 1 µM: read-out: Human LM Clint
Method: Microsomal Metabolic Stability Assay
Microsomes were pre-incubated with test compound or control compounds for 5 min at 37° C. in 100 mM potassium phosphate buffer, pH 7.4, 1.0 mM EDTA. The reaction was initiated by addition of 15 μL of the NADPH regenerating system to 30 μL of each incubation mixture per time point. The final incubation condition was composed of 0.5 mg/mL microsomal protein, 1 μM test article/positive control, 2 mM NADPH. The 0-minute samples were prepared by addition of a 30 μL aliquot of each incubation mixture to 135 μL quench reagent to precipitate proteins. And then a 15 μL aliquot of the NADPH regenerating system was added. At 5, 15, 30 and 45 minutes, the reaction will be stopped by the addition of cold acetonitrile solution containing internal standard. The samples taken at all time points were centrifuged at 5000×g for 15 minutes. 50 μL of supernatant are taken into 96-well assay plates pre-added with 50 μL ultrapure water, and then analyzed by LC/MS/MS.
Concentrations of test articles, control compounds in the samples were determined by using LC/MS/MS method. Plotting of the chromatograms and peak area integrations are carried out by Analyst (AB Sciex).
In the determination of the in vitro elimination constant (ke) of the control compounds, the analyte/internal standard peak area ratios will be converted to percentage remaining (% Remaining) with the following equation:
The CLint of microsomes was calculated using the formula: CLint (mic)=0.693/T1/2/mg microsome protein per mL. The slope was measured by the natural logarithm of the percentage of the residual compound and time, T1/2 was calculated according to the following formula.

Kinetic solubility = assay type: physicochemical; conditions: 100 mM pH 7.4 phosphate buffer, 1% DMSO, room temperature, read-out: Kinetics Solubility_PBS7.4
Method: Aliquots of 8 μL of reference and test compound stock solutions (10 mM/5 mM) are added into 792 μL of 100 mM pH 7.4 phosphate buffer. The final DMSO concentration is 1%. Sample tubes are shaken for 2 hours at 1000 rpm at room temperature. Samples are centrifuged at 12000 rpm for 10 min to precipitate un-dissolved particles. And transfer the supernatants to a new tube or plate. Add 5 μL of samples (no diluted, 10 times diluted and 100 times diluted) and standard curve samples to 95 μL of ACN containing IS for LC-MS/MS analysis.

pSTAT1 = assay: Phosphorylation inhibition of STAT in human whole blood (IFN-alpha stimulated, flow cytometry); assay type: cell-based; conditions: T-cell, CD3+ T cells, read-out: pSTAT1 inhibition in hWB (IC50)
Method: Phosphorylation Inhibition of STAT in Human Whole Blood Testing: The inhibitory potential of test articles in human whole blood assay was evaluated by the method of flow cytometry. IFN-alpha will activate JAK1 and TYK2 kinase in T cells by binding to IFN receptors, and then lead to phosphorylation of STAT1 and STAT2. The phosphorylated STAT1 enter nuclear and promote transcription and expression of IFN-gamma. To evaluate the efficacy of TYK2i in T cells, freshly collected human whole blood will be stimulated with certain unit of human IFN-alpha (Universal Type I IFN (1MU), R&D, 11200-2) for 20 mins in incubator. After stimulation, fix cells with PhosflowTM Fix Buffer I (BD, 557870), and then collect fixed cells by centrifugation (500 g, 8 min). Wash cells once with pre-cooled PBS, and then permeabilize cells with cold Perm Buffer III buffer (BD, 558050) for 45 mins on ice. Collect cells by centrifugation (600 g, 8 min) and washed twice with cold PBS. Stain cells with anti-human CD3(FITC Mouse Anti-Human CD3, BD, 555332) and anti-pSTAT1_Y701 (Alexa Fluor 647 Mouse Anti-Stat1 ([…]), BD, 612597) antibodies. Detect pSTAT1 by flow cytometry (CytoFlex S) and analyze data with FlowJo and GraphPad Prism 8 software. IC50 values of test articles were determined using 4-parameter logistic equation.

TYK2 pathway = assay: IFN-γ release in NK92 cells stimulated by IL-12 (ELISA); assay type: cell-based; conditions: Homo sapiens, IL-12 2.5 ng/mL
From the text: IFN-γ Release in NK92 Cells Stimulated by IL-12
Purpose: To evaluate the inhibition activity of TYK2 inhibitors in NK92 cells on TYK2 pathway through ELISA method.

[2] = human liver microsomes 0.5 mg/mL, 1 μM

T2 sequence (P23458 583-855 limits assumed): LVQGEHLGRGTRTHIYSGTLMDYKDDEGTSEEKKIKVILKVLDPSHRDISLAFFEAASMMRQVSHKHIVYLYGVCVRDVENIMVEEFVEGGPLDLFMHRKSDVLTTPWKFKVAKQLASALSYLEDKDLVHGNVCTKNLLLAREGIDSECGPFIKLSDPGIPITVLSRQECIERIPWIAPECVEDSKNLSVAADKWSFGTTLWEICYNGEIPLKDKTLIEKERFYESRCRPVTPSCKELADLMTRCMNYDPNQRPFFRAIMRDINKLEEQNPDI
T1 sequence (P29597 589-875 limits assumed): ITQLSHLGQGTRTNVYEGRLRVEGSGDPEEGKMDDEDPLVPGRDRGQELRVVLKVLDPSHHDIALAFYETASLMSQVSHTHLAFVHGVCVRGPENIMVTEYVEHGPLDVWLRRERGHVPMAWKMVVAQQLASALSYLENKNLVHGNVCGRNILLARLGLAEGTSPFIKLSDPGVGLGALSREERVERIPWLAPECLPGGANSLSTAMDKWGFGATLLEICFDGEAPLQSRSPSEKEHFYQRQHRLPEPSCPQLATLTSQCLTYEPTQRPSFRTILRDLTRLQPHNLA

Molecule | JAK1/TYK2 selectivity (TYK2-JH2 domain) | IC50 (TYK2-JH2 domain) | IC50 (JAK1-JH2 domain) | Human LM Clint [1, 2] | half-life at 1 µM [1] | solubility kinetic at 2 h (Kinetic solubility; aqueous buffer) | IC50 (pSTAT1) | microsomal CLint at 1 µM [1] | IC50 (TYK2 pathway) | Human LM T½ [1, 2] | solubility kinetic at 2 h (Kinetic solubility)
[2H]C([2H])([2H])NC(=O)c1cnc(NC(=O)C2CC2)cc1Nc1ncc2cnn(C(C)C(F)(F)F)c2c1OC (single isomer, unassigned) [Example 3B, (S*)-6-(Cyclopropanecarboxamido)-4-((7-methoxy-1-(1,1,1-trifluoropropan-2-yl)-1H-pyrazolo[4,3-c]pyridin-6-yl)amino)-N-(methyl-d3)nicotinamide] | 141.36 | 0.805 nM | 114 nM | 5.33 µL/min/mg | 4.33 h | 12.8 µM (≈ 6.13 µg/mL) | – | – | – | – | –
[2H]C([2H])([2H])NC(=O)c1cnc(NC(=O)C2CC2)cc1Nc1ccc2cnn(CC(C)(F)F)c2c1OC [Example 2, 6-(Cyclopropanecarboxamido)-4-((1-(2,2-difluoropropyl)-7-methoxy-1H-indazol-6-yl)amino)-N-(methyl-d3)nicotinamide] | 78.97 | 0.239 nM | 18.9 nM | – | 0.429 h | – | 327 nM | 53.8 µL/min/mg | – | – | –
[2H]C([2H])([2H])NC(=O)c1cnc(NC(=O)[C@@H]2C[C@@H]2F)cc1Nc1ncc2cnn(CC(F)(F)F)c2c1OC [Example 9, 6-((1S,2S)-2-fluorocyclopropane-1-carboxamido)-4-((7-methoxy-1-(2,2,2-trifluoroethyl)-1H-pyrazolo[4,3-c]pyridin-6-yl)amino)-N-(methyl-d3)nicotinamide] | 166.08 | 0.212 nM | 35.2 nM | – | 4.27 h | 38.2 µM (≈ 18.5 µg/mL) | 274 nM | 5.42 µL/min/mg | – | – | –
[2H]C([2H])([2H])NC(=O)c1cnc(NC(=O)[C@H]2C[C@H]2F)cc1Nc1ncc2cnn(CC(F)(F)F)c2c1OC [Example 10, 6-((1R,2R)-2-fluorocyclopropane-1-carboxamido)-4-((7-methoxy-1-(2,2,2-trifluoroethyl)-1H-pyrazolo[4,3-c]pyridin-6-yl)amino)-N-(methyl-d3)nicotinamide] | 86.04 | 0.408 nM | 35.1 nM | – | 5.15 h | 29 µM (≈ 14 µg/mL) | – | 4.49 µL/min/mg | – | – | –
[2H]C([2H])([2H])NC(=O)c1cnc(NC(=O)C2CC2)cc1Nc1ncc2ncn(CC(C)(F)F)c2c1OC [Example 14, 6-(Cyclopropanecarboxamido)-4-((1-(2,2-difluoropropyl)-7-methoxy-1H-imidazo[4,5-c]pyridin-6-yl)amino)-N-(methyl-d3)nicotinamide] | 217.86 | 0.178 nM | 38.8 nM | – | 0.589 h | 16.9 µM (≈ 7.82 µg/mL) | – | 39.2 µL/min/mg | – | – | –
[2H]C([2H])([2H])NC(=O)c1cnc(NC(=O)C2CC2)cc1Nc1ccc2ccn(C([2H])([2H])[2H])c2c1OC [Example 15, 6-(Cyclopropanecarboxamido)-4-((7-methoxy-1-(methyl-d3)-1H-indol-6-yl)amino)-N-(methyl-d3)nicotinamide] | 15.64 | 0.094 nM | 1.47 nM | – | – | – | 205 nM | – | – | – | –
[2H]C([2H])([2H])NC(=O)c1cnc(NC(=O)C2CC2)cc1Nc1cc(F)c2ccn(CC)c2c1OC [Example 16, 6-(Cyclopropanecarboxamido)-4-((1-ethyl-4-fluoro-7-methoxy-1H-indol-6-yl)amino)-N-(methyl-d3)nicotinamide] | 70.10 | 0.083 nM | 5.82 nM | – | – | – | 220 nM | – | – | – | –
CNC(=O)c1cnc(NC(=O)C2CC2)cc1Nc1ncn2ncc(C#N)c2c1OC [Example 20, 4-((3-Cyano-4-methoxypyrazolo[1,5-c]pyrimidin-5-yl)amino)-6-(cyclopropanecarboxamido)-N-methylnicotinamide] | 63.62 | 0.304 nM | 19.3 nM | – | 0.589 h | – | 167 nM | 39.2 µL/min/mg | – | – | –
[2H]C([2H])([2H])NC(=O)c1cnc(Nc2ccn(C)n2)cc1Nc1ncc2cnn(CC(C)(F)F)c2c1OC [Example 22, 4-((1-(2,2-Difluoropropyl)-7-methoxy-1H-pyrazolo[4,3-c]pyridin-6-yl)amino)-N-(methyl-d3)-6-((1-methyl-1H-pyrazol-3-yl)amino)nicotinamide] | 113.31 | 2.62 nM | 297 nM | – | 2.5 h | 19.8 µM (≈ 9.39 µg/mL) | – | 9.25 µL/min/mg | – | – | –
[2H]C([2H])([2H])NC(=O)c1cnc(NC(=O)C2CC2)cc1Nc1ccc2ncn(CC(F)(F)F)c2c1OC [Example 27, 6-(Cyclopropanecarboxamido)-4-((7-methoxy-1-(2,2,2-trifluoroethyl)-1H-benzo[d]imidazol-6-yl)amino)-N-(methyl-d3)nicotinamide] | >107.8 | 2.77 nM | > 298 nM | – | – | 44.2 µM (≈ 20.6 µg/mL) | – | – | – | – | –
[2H]C([2H])([2H])NC(=O)c1cnc(NC(=O)C2CC2)nc1Nc1ncc2cnn(CC(C)(F)F)c2c1OC [Example 28, 2-(Cyclopropanecarboxamido)-4-((1-(2,2-difluoropropyl)-7-methoxy-1H-pyrazolo[4,3-c]pyridin-6-yl)amino)-N-(methyl-d3)pyrimidine-5-carboxamide] | – | > 298 nM | > 298 nM | – | – | 20.6 µM (≈ 9.55 µg/mL) | – | – | – | – | –
[2H]C([2H])([2H])NC(=O)c1cnc(NC(=O)C2CC2)cc1Nc1ccn2ncc(Br)c2c1OC [Example 29, 4-((3-Bromo-4-methoxypyrazolo[1,5-a]pyridin-5-yl)amino)-6-(cyclopropanecarboxamido)-N-(methyl-d3)nicotinamide] | 42.0 | 0.188 nM | 7.87 nM | – | – | – | – | – | 32.1 nM | – | –
(R*)-6(Cyclopropanecarboxamido)-4((7-methoxy-1-(1,1,1-trifuoropropan-2-yl)-1H-pyrazolo[4,3-c]pyridin-6-yl)amino)-N-(methyl-d3)nicotinamide [Example 3A] | >34.94 | 8.54 nM | > 298 nM | 6.20 µL/min/mg | – | – | – | – | – | 3.7278 h | 19.05 µM
